Data set [1] concerns HepG2. Description: Antiproliferative activity against human HepG2 cells after 24 hrs by MTT assay. It is filed as functional, cell-based. Particulars: HepG2, 24 h. For orientation: Tetrazolium assays rely on reduction of a dye to a coloured formazan, in cell work by metabolically active cells.
The target in data set [2] is T1, Tubulin (Bos taurus) (UniProt Q6B856+Q862L2+Q862F3). Description: Inhibition of [3H]colchicine binding to bovine brain tubulin at 5 uM.
In data set [3] the test system is MCF7. The data set is described as follows: Antiproliferative activity against human MCF7 cells after 24 hrs by MTT assay. Particulars: MCF7, 24 h. It counts as functional, cell-based.
Data set [4] addresses T1, Tubulin (Bos taurus). Description: Inhibition of vinblastine binding to bovine brain tubulin at 5 uM.
The test system of data set [5] is HeLa. Description: Antiproliferative activity against human HeLa cells after 24 hrs by MTT assay. It counts as functional, cell-based.
A short description of data set [6]: Cytotoxicity against mouse primary hepatocytes after 24 hrs by MTT assay. It is filed as cell-based, Hepatocyte.
The subject of data set [7] is A549. The data set is described as follows: Antiproliferative activity against human A549 cells after 24 hrs by MTT assay. It is filed as functional, cell-based. The note with it: A549, 24 h.
A short description of data set [8]: Cytotoxicity against HEK293T cells after 24 hrs by MTT assay. It is filed as cell-based, HEK-293T. Particulars: human.

Some results are limits rather than exact numbers.

In general, IC50 refers to the concentration that gives 50% inhibition. By inhibition is commonly meant the change of the read-out against control, counted positive when it falls. The term CC50 denotes the concentration that lowers cell viability or growth by half. Regarding `Cc1ccc(-c2nn(-c3ccccc3)cc2-c2nc3ccccc3n2S(=O)(=O)c2ccc(F)cc2)cc1`, the IC50 in data set [1] worked out at 5.06 µM; in data set [3], 5.27 µM; in data set [5], 3.67 µM; in data set [7], 3.24 µM. Moreover, the values for the inhibition in data set [2] and in data set [4] were 53% and 0.07%, respectively. The figures for the CC50 at 24 h in data set [6] and in data set [8] were 167 µM and 128 µM, respectively.

As to `O=[N+]([O-])c1ccc(S(=O)(=O)n2c(-c3cn(-c4ccccc4)nc3-c3ccc(F)cc3)nc3ccccc32)cc1`, the IC50 stood at 1.34 µM in data set [1], 1.37 µM in data set [3], 1.17 µM in data set [5] and 1.03 µM in data set [7]. Moreover, the values for the inhibition in data set [2] and in data set [4] were 51% and -0.04 to 0.3%, respectively. Moreover, the half-maximal cytotoxic concentration (CC50) at 24 h in data set [6] is more than 300 µM; in data set [8], 189 µM.

As to `O=S(=O)(c1ccc(Cl)cc1)n1c(-c2cn(-c3ccccc3)nc2-c2ccc(F)cc2)nc2ccccc21`, the IC50 came out at 4.23 µM in data set [1], 4.96 µM in data set [3], 3.45 µM in data set [5] and 3.17 µM in data set [7]. In addition, the inhibition in data set [2] is 48%; in data set [4], -2.09 to 2.7%. The 50% cytotoxic concentration (CC50) at 24 h came to 231 µM in data set [6] and 93.1 µM in data set [8].

As to `COc1ccc(S(=O)(=O)n2c(-c3cn(-c4ccccc4)nc3-c3ccc(F)cc3)nc3ccccc32)cc1`, the IC50 is 0.47 µM in data set [1], 0.53 µM in data set [3], 0.39 µM in data set [5] and 0.35 µM in data set [7]. Further, the figures for the inhibition in data set [2] and in data set [4] were 77% and 2.98%, respectively. The CC50 at 24 h in data set [6] turned out to be 105 µM; in data set [8] it was 37.3 µM.

As to `O=S(=O)(c1ccccc1)n1c(-c2cn(-c3ccccc3)nc2-c2ccc(C(F)(F)F)cc2)nc2ccccc21`, the IC50 in data set [1] is 0.59 µM; in data set [3], 0.63 µM; in data set [5], 0.56 µM; in data set [7], 0.48 µM. For the same molecule, the inhibition in data set [2] worked out at 61%; in data set [4], 0.52%. The cytotoxic concentration (CC50) at 24 h in data set [6] was 186 µM; in data set [8], 128 µM.

On to `O=S(=O)(c1ccc(Cl)cc1)n1c(-c2cn(-c3ccccc3)nc2-c2ccc(C(F)(F)F)cc2)nc2ccccc21`, for which the 50% inhibitory concentration (IC50) was 3.93 µM in data set [1], 4.32 µM in data set [3], 3.06 µM in data set [5] and 2.56 µM in data set [7]. In addition, the values for the inhibition in data set [2] and in data set [4] were 40% and 0.73%, respectively. Also, the half-maximal cytotoxic concentration (CC50) at 24 h came to 173 µM in data set [6] and 75.3 µM in data set [8].

For the molecule `Cc1ccc(-c2nn(-c3ccccc3)cc2-c2nc3ccccc3n2S(=O)(=O)c2cc(C)ccc2C)cc1`, the IC50 worked out at 0.46 µM in data set [1], 0.51 µM in data set [3], 0.37 µM in data set [5] and 0.27 µM in data set [7]. Moreover, the results for the inhibition in data set [2] and in data set [4] were 82% and 0.07%, respectively. The cytotoxic concentration (CC50) at 24 h in data set [6] turned out to be 231 µM; in data set [8] it was 82.2 µM.

Take `COc1ccc(S(=O)(=O)n2c(-c3cn(-c4ccccc4)nc3-c3ccc(C(F)(F)F)cc3)nc3ccccc32)cc1`: the IC50 in data set [1] was 0.37 µM; in data set [3], 0.42 µM; in data set [5] it was 0.25 µM; in data set [7] it was 0.17 µM. Also, the values for the inhibition in data set [2] and in data set [4] were 85% and 0.03%, respectively. The values for the cytotoxic concentration (CC50) at 24 h in data set [6] and in data set [8] were 87.4 µM and more than 300 µM, respectively.

Turning to `O=S(=O)(c1ccc(F)cc1)n1c(-c2cn(-c3ccccc3)nc2-c2ccc(C(F)(F)F)cc2)nc2ccccc21`, the half-inhibitory concentration (IC50) in data set [1] turned out to be 2.73 µM; in data set [3] it was 3.12 µM; in data set [5], 2.19 µM; in data set [7], 1.74 µM. For the same molecule, the inhibition in data set [2] was 54%; in data set [4] it was 0.65%. For the same molecule, the cytotoxic concentration (CC50) at 24 h in data set [6] turned out to be 83.3 µM; in data set [8], 157 µM.

Consider `COc1cc2c(c(OC)c1OC)-c1ccc(OC)c(=O)cc1[C@@H](NC(C)=O)CC2` [COLCHICINE], for which the IC50 in data set [1] is 0.42 µM; in data set [3] it was 0.44 µM; in data set [5], 0.36 µM; in data set [7], 0.22 µM. Also, the values for the cytotoxic concentration (CC50) at 24 h in data set [6] and in data set [8] were 153 µM and 129 µM, respectively.

For the molecule `Cc1ccc(-c2nn(-c3ccccc3)cc2-c2nc3ccccc3n2S(=O)(=O)c2ccc(C)cc2)cc1`, the IC50 came to 0.52 µM in data set [1], 0.57 µM in data set [3], 0.48 µM in data set [5] and 0.46 µM in data set [7]. Besides, the figures for the inhibition in data set [2] and in data set [4] were 66% and 0.18%, respectively. The cytotoxic concentration (CC50) at 24 h stood at 102 µM in data set [6] and 79.3 µM in data set [8].

As for `O=S(=O)(c1ccc(Br)cc1)n1c(-c2cn(-c3ccccc3)nc2-c2ccc(C(F)(F)F)cc2)nc2ccccc21`, the IC50 came to 2.16 µM in data set [1], 2.47 µM in data set [3], 1.86 µM in data set [5] and 1.69 µM in data set [7]. The inhibition in data set [2] was 52%; in data set [4] it was -0.07 to 2.1%. The 50% cytotoxic concentration (CC50) at 24 h is 167 µM in data set [6] and 185 µM in data set [8].

Consider `O=S(=O)(c1ccccc1)n1c(-c2cn(-c3ccccc3)nc2-c2ccc(F)cc2)nc2ccccc21`, for which the IC50 in data set [1] stood at 0.72 µM; in data set [3], 0.69 µM; in data set [5], 0.68 µM; in data set [7] it was 0.55 µM. The inhibition in data set [2] came out at 62%; in data set [4] it was 0.05%. Moreover, the 50% cytotoxic concentration (CC50) at 24 h was 231 µM in data set [6] and 96.3 µM in data set [8].

Consider `O=S(=O)(c1ccc(C(F)(F)F)cc1)n1c(-c2cn(-c3ccccc3)nc2-c2ccc(F)cc2)nc2ccccc21`, for which the half-inhibitory concentration (IC50) in data set [1] is 1.68 µM; in data set [3], 1.58 µM; in data set [5] it was 1.43 µM; in data set [7] it was 1.28 µM. In addition, the figures for the inhibition in data set [2] and in data set [4] were 50% and 0.51%, respectively. Moreover, the CC50 at 24 h was determined as 55.3 µM in data set [6] and 241 µM in data set [8].

Regarding `O=S(=O)(c1ccc(F)cc1)n1c(-c2cn(-c3ccccc3)nc2-c2ccc(F)cc2)nc2ccccc21`, the half-inhibitory concentration (IC50) worked out at 3.52 µM in data set [1], 3.67 µM in data set [3], 2.44 µM in data set [5] and 2.37 µM in data set [7]. The inhibition turned out to be 48% in data set [2] and 1.32% in data set [4]. Also, the CC50 at 24 h was determined as 174 µM in data set [6] and 218 µM in data set [8].

For the molecule `O=S(=O)(c1ccc(Br)cc1)n1c(-c2cn(-c3ccccc3)nc2-c2ccc(F)cc2)nc2ccccc21`, the IC50 came out at 2.55 µM in data set [1], 2.63 µM in data set [3], 2.04 µM in data set [5] and 1.72 µM in data set [7]. In addition, the inhibition in data set [2] was 51%; in data set [4], 3.02%. Besides, the CC50 at 24 h in data set [6] is more than 300 µM; in data set [8], 239 µM.

With `O=S(=O)(c1ccc(C(F)(F)F)cc1)n1c(-c2cn(-c3ccccc3)nc2-c2ccc(C(F)(F)F)cc2)nc2ccccc21`, the IC50 was 1.12 µM in data set [1], 1.24 µM in data set [3], 0.97 µM in data set [5] and 0.86 µM in data set [7]. Further, the inhibition is 54% in data set [2] and 0.05% in data set [4]. Further, the CC50 at 24 h came out at 137 µM in data set [6] and 63.2 µM in data set [8].

As to `O=[N+]([O-])c1ccc(S(=O)(=O)n2c(-c3cn(-c4ccccc4)nc3-c3ccc(C(F)(F)F)cc3)nc3ccccc32)cc1`, the concentration for half-maximal inhibition (IC50) was 1.07 µM in data set [1], 1.13 µM in data set [3], 0.95 µM in data set [5] and 0.79 µM in data set [7]. Besides, the figures for the inhibition in data set [2] and in data set [4] were 63% and 0.14%, respectively. Further, the figures for the CC50 at 24 h in data set [6] and in data set [8] were 178 µM and 163 µM, respectively.

With `Cc1ccc(-c2nn(-c3ccccc3)cc2-c2nc3ccccc3n2S(=O)(=O)c2ccc(C(F)(F)F)cc2)cc1`, the half-maximal inhibitory concentration (IC50) came out at 1.93 µM in data set [1], 2.34 µM in data set [3], 1.52 µM in data set [5] and 1.46 µM in data set [7]. The values for the inhibition in data set [2] and in data set [4] were 55% and 0.21%, respectively. For the same molecule, the CC50 at 24 h was found to be 89.3 µM in data set [6] and 182 µM in data set [8].

In the case of `Cc1ccc(-c2nn(-c3ccccc3)cc2-c2nc3ccccc3[nH]2)cc1`, the IC50 in data set [1] turned out to be 6.26 µM; in data set [3], 7.26 µM; in data set [5], 4.95 µM; in data set [7] it was 4.01 µM. For the same molecule, the inhibition in data set [2] turned out to be 40%; in data set [4], 0.05%. Further, the values for the CC50 at 24 h in data set [6] and in data set [8] were more than 300 µM and 187 µM, respectively.

With `Cc1ccc(-c2nn(-c3ccccc3)cc2-c2nc3ccccc3n2S(=O)(=O)c2ccc(Br)cc2)cc1`, the 50% inhibitory concentration (IC50) in data set [1] was determined as 3.04 µM; in data set [3], 3.16 µM; in data set [5], 2.34 µM; in data set [7] it was 1.86 µM. Also, the inhibition in data set [2] was 48%; in data set [4], -0.38 to 1.4%. In addition, the CC50 at 24 h in data set [6] is more than 300 µM; in data set [8] it was 159 µM.

Consider `FC(F)(F)c1ccc(-c2nn(-c3ccccc3)cc2-c2nc3ccccc3[nH]2)cc1`, for which the half-maximal inhibitory concentration (IC50) in data set [1] came out at 6.03 µM; in data set [3] it was 6.33 µM; in data set [5] it was 4.67 µM; in data set [7], 3.62 µM. Also, the results for the inhibition in data set [2] and in data set [4] were 44% and -0.03 to 2.1%, respectively. Also, the cytotoxic concentration (CC50) at 24 h in data set [6] amounted to 159 µM; in data set [8], 167 µM.

On to `Cc1ccc(-c2nn(-c3ccccc3)cc2-c2nc3ccccc3n2S(=O)(=O)c2ccc(Cl)cc2)cc1`, for which the IC50 in data set [1] amounted to 5.52 µM; in data set [3], 5.93 µM; in data set [5] it was 4.06 µM; in data set [7], 3.55 µM. Besides, the inhibition in data set [2] was 38%; in data set [4], 0.24%. Further, the CC50 at 24 h in data set [6] was determined as 216 µM; in data set [8] it was 167 µM.

These data come from ChEMBL document CHEMBL4330117, “Synthesis, biological evaluation and molecular docking of benzimidazole grafted benzsulfamide-containing pyrazole ring derivatives as novel tubulin polymerization inhibitors” (Bioorg Med Chem, 2019).
